# Laboratory results from publication PMC10004634 (PLOS ONE, 2023).
# Entries after “also recorded” stand apart in the source; their conditions may differ.
# How the values were obtained:
# [1] = biological target: T1, ABL1(F317I)-phosphorylated (Homo sapiens, UniProt P00519, F317I); test: biochemical; set-up: KINOMEscan scanMAX competition binding, DNA-tagged kinases, qPCR read-out, percent control at 300 nM; conditions: read-out: Percent control / Acalabrutinib
# T1 construct: phosphorylated
# [2] = tested on: TMD8 subcutaneous xenograft; test: TMD8 subcutaneous xenograft model, tumor volume; assay type: in vivo, mouse; conditions: SCID mice; 1, 3, 10 mg/kg BID orally, 21 days
# Method: The present study was conducted in compliance with the Guidance for Animal Experiments, the Ethical Standards for Experiments using Human Tissues, and the Standards for Safety Management of Pathogens established by Ono Pharmaceutical Co., Ltd. Female C.B-17/Icr-scid/scidJcl mice (hereafter referred to as severe combined immunodeficient [SCID] mice) were obtained from CLEA Japan, Inc. (Tokyo, Japan). The age at the beginning of the experiment was 6 weeks. To establish the TMD8 xenograft model, TMD8 cell suspension (0.1 mL, 1 × 10^8 cells/mL) was subcutaneously injected into the right flank of SCID mice under pentobarbital anesthesia. […] Tumor diameters and body weight were measured every 3 or 4 days after group assignment. The tumor growth inhibition rate (%) in the tirabrutinib-treated groups, versus the vehicle group, was calculated based on tumor volume. Statistical tests were performed with the SAS 9.2 (SAS Institute Japan Ltd., Tokyo, Japan) TS2M3-based EXSUS system version 7.7.1 (CAC Corporation, Tokyo, Japan). The Dunnett test was used to compare tumor volume in the tirabrutinib- and vehicle-treated groups, and linear regression analysis was used to study dose response in the tirabrutinib groups. The statistical tests were two-sided with a 5% significance level.
# TMD8 xenograft tumor = test: Gene expression microarray analysis of TMD8 xenograft tumors
# Method: The TMD8 xenograft model was also used for microarray analysis. […] After 21 days of drug administration and 24 h after the final dose, the mice underwent laparotomy under isoflurane anesthesia and were sacrificed by exsanguination. Tumors were collected and quickly frozen with liquid nitrogen. RNA extraction and gene expression microarray analysis were performed at LSI Medience Corporation (Tokyo, Japan) using the miRNeasy® mini kit (Qiagen, Hilden, Germany) and the Low Input Quick Amp Labeling Kit (Agilent Technologies, Santa Clara, CA, USA) according to the manufacturers’ instructions. The DNA microarray results were processed using Expressionist Analyst (GeneData, Basel, Switzerland) and Excel.
# TMD8 cells = test: RT-qPCR of IRF4, BCL6, MYC mRNA; assay type: cell-based, human; conditions: 24 h
# Method: After culturing, total RNA was isolated from cells using the RNeasy Plus Mini Kit (Qiagen), then cDNA was prepared from total RNA using the SuperScript VILO cDNA Synthesis Kit (Invitrogen) following the kit instructions. For quantification of each mRNA expression level, PCR was performed using TaqMan Fast Universal PCR Master Mix (Thermo Fisher Scientific) under the following conditions with the AriaMx Real Time PCR System (Agilent Technologies): 95°C for 3 min, followed by 40 cycles at 95°C for 5 s and 60°C for 20 s with continuous fluorescence measurement. All PCRs were performed in triplicate, and the mRNA expression of GAPDH was used as an internal control. The results (fold changes of the threshold cycle [Ct] relative to the control group) were obtained using the 2^−ΔΔCt method. The TaqMan probes for IRF4 (Assay ID: Hs00180031_m1), BCL6 (Assay ID: Hs00153368_m1), MYC (Assay ID: Hs00153408_m1), and GAPDH (Assay ID: Hs02786624_g1) were purchased from Thermo Fisher Scientific. Statistical tests were performed with the SAS 9.4 (SAS Institute Japan Ltd., Tokyo, Japan) TS1M4-based EXSUS system version 10.1.3 (CAC Corporation, Tokyo, Japan). The t-test or Dunnett test was used to compare mRNA expression in the DMSO- and compound-treated groups. The statistical tests were two-sided with a 5% significance level.
# T-cells in human PBMC = test: PBMC stimulation assay, anti-CD3/CD28-stimulated T-cell activation (CD69); assay type: cell-based; conditions: 16 h, up to the highest concentration of 10 μM
# Method: (§1) After culturing, the stimulated cells were stained with fluorescently labeled CD3, CD20, and CD69 antibodies. B-cells (identified by gating CD20-positive and CD3-negative cells) and T-cells (identified by gating CD3-positive and CD20-negative cells) were analyzed by flow cytometry to monitor the expression of CD69. […] GraphPad Prism version 5.04 (GraphPad Software, Inc., San Diego, CA, USA) and its base settings were used for initial values and convergence conditions.
# B-cells in human PBMC = test: PBMC stimulation assay, anti-IgM-stimulated B-cell activation (CD69); assay type: cell-based; conditions: anti-IgM 1 μg/mL, 22 h, read-out: IC50 of CD69 inhibition, anti-IgM-stimulated B-cell activation
# Method: as §1
# TEC = biological target: T2, TEC (Homo sapiens, UniProt P42680); test: LanthaScreen Eu kinase binding assay; set-up: purchased Thermo Fisher Scientific (Invitrogen LanthaScreen service); conditions: 60 min preincubation
# T2 sequence (P42680 1-631): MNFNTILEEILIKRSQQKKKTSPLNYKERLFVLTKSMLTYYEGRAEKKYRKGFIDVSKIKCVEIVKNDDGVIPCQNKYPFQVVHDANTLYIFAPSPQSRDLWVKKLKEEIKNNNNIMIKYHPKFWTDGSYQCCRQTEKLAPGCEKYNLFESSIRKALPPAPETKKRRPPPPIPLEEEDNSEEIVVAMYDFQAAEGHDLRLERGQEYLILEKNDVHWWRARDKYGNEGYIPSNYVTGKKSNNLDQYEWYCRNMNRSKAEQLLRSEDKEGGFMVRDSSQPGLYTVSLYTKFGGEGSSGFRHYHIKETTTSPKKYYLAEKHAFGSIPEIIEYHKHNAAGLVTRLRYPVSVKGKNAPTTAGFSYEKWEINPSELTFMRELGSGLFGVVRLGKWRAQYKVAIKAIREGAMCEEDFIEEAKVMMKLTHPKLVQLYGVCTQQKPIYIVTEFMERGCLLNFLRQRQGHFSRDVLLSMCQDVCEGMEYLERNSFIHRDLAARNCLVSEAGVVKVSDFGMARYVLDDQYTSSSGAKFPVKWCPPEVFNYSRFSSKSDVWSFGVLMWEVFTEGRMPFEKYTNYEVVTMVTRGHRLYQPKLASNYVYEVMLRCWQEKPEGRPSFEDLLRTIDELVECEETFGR
# Method: In all the assays, each test compound was preincubated with peptide/kinase mixture or kinase/antibody mixture for 60 min at room temperature before adding the ATP solution or AlexaFluor labeled Tracer to initiate the 60-min incubation of the reactants.
# ZAP70 = ZAP70 (Homo sapiens, UniProt P43403); test: biochemical; set-up: KINOMEscan scanMAX competition binding, DNA-tagged kinases, qPCR read-out, percent control at 300 nM; conditions: read-out: Percent control / Zanubrutinib
# STK39 = STK39 (Homo sapiens, UniProt Q9UEW8); test: biochemical; set-up: KINOMEscan scanMAX competition binding, DNA-tagged kinases, qPCR read-out, percent control at 300 nM; conditions: read-out: Percent control / Zanubrutinib
# [3] = tirabrutinib 1 μM, BMS-345541 10 μM, MK-2206 1 μM, refametinib 0.1 μM
# T1 sequence (P00519 whole entry F317I): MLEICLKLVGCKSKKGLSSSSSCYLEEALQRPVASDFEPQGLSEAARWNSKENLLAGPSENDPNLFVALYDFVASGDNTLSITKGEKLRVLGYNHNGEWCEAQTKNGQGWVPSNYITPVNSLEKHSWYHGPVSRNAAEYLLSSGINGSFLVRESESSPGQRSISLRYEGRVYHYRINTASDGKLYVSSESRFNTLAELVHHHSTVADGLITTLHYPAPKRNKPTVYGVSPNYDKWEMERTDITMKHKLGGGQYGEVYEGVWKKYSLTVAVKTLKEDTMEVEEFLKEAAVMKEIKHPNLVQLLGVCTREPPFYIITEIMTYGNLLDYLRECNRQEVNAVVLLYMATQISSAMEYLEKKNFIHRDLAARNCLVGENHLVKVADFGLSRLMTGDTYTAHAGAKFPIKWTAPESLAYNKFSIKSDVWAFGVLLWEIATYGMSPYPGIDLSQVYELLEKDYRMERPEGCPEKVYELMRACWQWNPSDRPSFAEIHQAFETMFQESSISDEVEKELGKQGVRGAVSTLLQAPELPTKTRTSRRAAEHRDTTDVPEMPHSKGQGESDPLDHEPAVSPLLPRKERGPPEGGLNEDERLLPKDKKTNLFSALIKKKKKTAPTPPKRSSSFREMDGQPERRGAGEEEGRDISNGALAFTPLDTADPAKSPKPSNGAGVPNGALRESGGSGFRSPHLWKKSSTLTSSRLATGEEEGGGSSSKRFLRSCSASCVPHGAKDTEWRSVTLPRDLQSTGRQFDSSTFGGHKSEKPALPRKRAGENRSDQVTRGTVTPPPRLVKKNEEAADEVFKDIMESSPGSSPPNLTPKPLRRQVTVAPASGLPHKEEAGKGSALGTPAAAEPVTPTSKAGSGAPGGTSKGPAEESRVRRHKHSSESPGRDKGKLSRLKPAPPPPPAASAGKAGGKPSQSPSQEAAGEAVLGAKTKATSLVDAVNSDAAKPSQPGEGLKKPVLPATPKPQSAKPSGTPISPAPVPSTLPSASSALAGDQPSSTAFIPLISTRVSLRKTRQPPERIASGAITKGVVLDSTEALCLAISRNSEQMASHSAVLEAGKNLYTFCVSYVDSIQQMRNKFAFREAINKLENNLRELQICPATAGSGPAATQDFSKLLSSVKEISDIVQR
# Sequence of ZAP70 (P43403 whole entry): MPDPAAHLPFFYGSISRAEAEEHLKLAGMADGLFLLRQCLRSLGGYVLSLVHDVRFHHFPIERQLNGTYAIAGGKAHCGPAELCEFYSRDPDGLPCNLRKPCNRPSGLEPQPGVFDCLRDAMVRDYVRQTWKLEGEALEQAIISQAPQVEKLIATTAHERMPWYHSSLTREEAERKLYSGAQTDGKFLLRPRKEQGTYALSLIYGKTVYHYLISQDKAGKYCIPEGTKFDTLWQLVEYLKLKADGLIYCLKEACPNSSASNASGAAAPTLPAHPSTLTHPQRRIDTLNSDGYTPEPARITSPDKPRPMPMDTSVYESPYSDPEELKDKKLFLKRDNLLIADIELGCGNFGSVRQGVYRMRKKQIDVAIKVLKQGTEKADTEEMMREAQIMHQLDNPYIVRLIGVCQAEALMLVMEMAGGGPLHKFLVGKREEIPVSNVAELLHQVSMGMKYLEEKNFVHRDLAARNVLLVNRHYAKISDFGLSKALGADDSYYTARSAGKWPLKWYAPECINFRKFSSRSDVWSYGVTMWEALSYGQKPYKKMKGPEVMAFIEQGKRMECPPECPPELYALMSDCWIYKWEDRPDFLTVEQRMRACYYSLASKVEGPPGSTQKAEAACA
smiles,measurement,setting,value
CC#CC(=O)N1CCC[C@H]1c1nc(-c2ccc(C(=O)Nc3ccccn3)cc2)c2c(N)nccn12 [Acalabrutinib],remaining binding at 0.3 µM,[1],94%
CC#CC(=O)N1CC[C@@H](n2c(=O)n(-c3ccc(Oc4ccccc4)cc3)c3c(N)ncnc32)C1 [Tirabrutinib],anti-tumor effect (tumor volume),[2],dose-dependent anti-tumor effect
same,number of downregulated probes,"TMD8 xenograft tumor; 10 mg/kg BID 21 days vs vehicle, fold change <0.5, P < 0.01",575
same,number of upregulated probes,"TMD8 xenograft tumor; 10 mg/kg BID 21 days vs vehicle, fold change >2, P < 0.01",549
same,PRDM1 expression,"TMD8 xenograft tumor; TMD8 xenograft, tirabrutinib vs vehicle",repressed
same,BCL6 mRNA expression,TMD8 cells; 1 μM,upregulated
same,IRF4 mRNA expression,TMD8 cells; [3],downregulated; also recorded: strongly inhibited
same,MYC mRNA expression,TMD8 cells; [3],partially downregulated
same,inhibition of anti-CD3/CD28-stimulated T-cell activation (CD69),T-cells in human PBMC,did not inhibit
same,IC50,B-cells in human PBMC,13.8 nM
C=CC(=O)N1CCC([C@@H]2CCNc3c(C(N)=O)c(-c4ccc(Oc5ccccc5)cc4)nn32)CC1 [Zanubrutinib],IC50,TEC,4.47 nM
same,remaining binding at 0.3 µM,ZAP70,68%
same,remaining binding at 0.3 µM,STK39,96%
